Results on four compounds are retold here after ChEMBL document CHEMBL4376865, “Discovery and Characterization of 1H-1,2,3-Triazole Derivatives as Novel Prostanoid EP4 Receptor Antagonists for Cancer Immunotherapy” (J Med Chem, 2020).

The nature of series [1]: in vitro. To be noted: human, liver microsomes. (In general: Microsomes from liver hold many membrane-bound enzymes, among them those of drug oxidation.)
A short description of series [2]: in vitro. Particulars: human, liver microsomes; call rule not given here. The source holds these as a separate data set.
Series [3] is described as follows: in vitro. To be noted: CD1, mouse, liver microsomes.
The nature of series [4]: in vitro. To be noted: CD1, mouse, liver microsomes. The source holds these as a separate data set.
For the next series, the target named is CYP2E1 (Homo sapiens, UniProt P05181). Put plainly: Inhibition of CYP2E1 in human liver microsomes at 20 uM using chlorzoxazone as substrate incubated for 60 mins by HPLC analysis relative to control. Type of series: ADME. Particulars: probe chlorzoxazone.
In another series the target is CYP2D6 (Homo sapiens, UniProt P10635). Put plainly: Inhibition of CYP2D6 in human liver microsomes at 20 uM using dextromethorphan as substrate incubated for 60 mins by HPLC analysis relative to control. Type of series: ADME. Particulars: probe dextromethorphan.
The target in series [5] is Prostaglandin E2 receptor EP4 subtype (Mus musculus, UniProt P32240). Put plainly: Antagonist activity at mouse EP4 expressed in CHO cells coexpressing G16-alpha assessed as intracellular calcium flux preincubated for 15 mins followed by addition of PGE2 by calcium flux assay. Type of series: functional, cell-based. Background: Calcium flux is commonly read through the fluorescence of an indicator in the cells.

The next series deals with T1, CYP1A2 (Homo sapiens, UniProt P05177).
T1 sequence (P05177 whole entry): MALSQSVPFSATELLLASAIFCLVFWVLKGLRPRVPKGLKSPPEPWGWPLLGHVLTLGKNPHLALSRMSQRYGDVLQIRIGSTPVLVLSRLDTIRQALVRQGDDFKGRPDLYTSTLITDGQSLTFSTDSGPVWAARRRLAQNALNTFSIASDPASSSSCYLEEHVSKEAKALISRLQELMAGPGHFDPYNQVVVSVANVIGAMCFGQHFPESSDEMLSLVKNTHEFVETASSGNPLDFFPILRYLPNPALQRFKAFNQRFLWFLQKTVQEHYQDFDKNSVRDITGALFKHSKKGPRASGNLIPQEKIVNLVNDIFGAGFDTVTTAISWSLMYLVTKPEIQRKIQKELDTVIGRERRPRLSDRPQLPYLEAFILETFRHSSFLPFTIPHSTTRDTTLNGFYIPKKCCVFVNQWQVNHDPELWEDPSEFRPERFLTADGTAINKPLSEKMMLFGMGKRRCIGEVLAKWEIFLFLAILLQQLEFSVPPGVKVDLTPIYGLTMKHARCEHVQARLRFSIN
Description: Inhibition of CYP1A2 in human liver microsomes at 20 uM using phenacetin as substrate incubated for 30 mins by HPLC analysis relative to control. To be noted: probe phenacetin. In kind it is ADME.

Another series deals with T2, CYP2B6 (Homo sapiens, UniProt P20813).
T2 sequence (P20813 whole entry): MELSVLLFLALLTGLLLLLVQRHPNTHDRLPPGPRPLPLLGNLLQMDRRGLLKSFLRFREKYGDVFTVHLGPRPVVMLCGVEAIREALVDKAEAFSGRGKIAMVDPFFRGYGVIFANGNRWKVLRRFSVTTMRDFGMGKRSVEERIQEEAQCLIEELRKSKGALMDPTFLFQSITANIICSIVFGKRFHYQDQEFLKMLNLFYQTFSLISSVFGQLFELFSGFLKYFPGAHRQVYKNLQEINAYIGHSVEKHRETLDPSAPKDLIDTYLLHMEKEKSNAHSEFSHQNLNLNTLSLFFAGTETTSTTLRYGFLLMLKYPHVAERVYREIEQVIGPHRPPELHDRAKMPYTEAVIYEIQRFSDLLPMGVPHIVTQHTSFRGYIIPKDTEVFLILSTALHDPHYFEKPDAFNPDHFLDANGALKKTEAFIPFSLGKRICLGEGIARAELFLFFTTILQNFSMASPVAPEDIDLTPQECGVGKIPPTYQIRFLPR
Description: Inhibition of CYP2B6 in human liver microsomes at 20 uM incubated for 60 mins by HPLC analysis relative to control. Type of series: ADME.

The target in a further series is CYP2C9 (Homo sapiens, UniProt P11712). Description: Inhibition of CYP2C9 in human liver microsomes at 20 uM using tolbutamide as substrate incubated for 60 mins by HPLC analysis relative to control. In kind it is ADME. Particulars: probe tolbutamide.
Another series has as its target Cytochrome P450 3A4 (Homo sapiens, UniProt P08684). Description: Inhibition of CYP3A4 in human liver microsomes at 20 uM using testosterone as substrate incubated for 60 mins by HPLC analysis. Type of series: ADME. To be noted: 1 h.
The next series deals with CT26. Put plainly: Antitumor activity against mouse CT26 cells xenografted in BALB/c mouse assessed as tumor growth inhibition at 150 mg/kg, po administerd daily and measured after two weeks. To be noted: 336 h, read-out: TGI.
Series [6] has as its target T3, Prostaglandin E2 receptor EP1 subtype (Homo sapiens, UniProt P34995).
T3 sequence (P34995 whole entry): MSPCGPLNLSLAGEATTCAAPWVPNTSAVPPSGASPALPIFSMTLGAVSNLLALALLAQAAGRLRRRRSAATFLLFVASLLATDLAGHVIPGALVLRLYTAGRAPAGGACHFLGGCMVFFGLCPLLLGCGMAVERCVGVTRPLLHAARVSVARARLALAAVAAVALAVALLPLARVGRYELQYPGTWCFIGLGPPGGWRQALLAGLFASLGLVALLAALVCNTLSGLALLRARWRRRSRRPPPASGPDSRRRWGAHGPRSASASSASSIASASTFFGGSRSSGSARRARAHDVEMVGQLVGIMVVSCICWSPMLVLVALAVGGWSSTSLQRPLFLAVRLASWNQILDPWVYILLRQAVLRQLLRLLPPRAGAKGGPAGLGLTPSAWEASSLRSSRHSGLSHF
Description: Antagonist activity at human EP1 expressed in CHO cells coexpressing G16-alpha assessed as intracellular calcium flux preincubated for 15 mins followed by addition of PGE2 by calcium flux assay. Type of series: functional, cell-based.

Series [7] can be described thus: Metabolic stability in human liver microsomes assessed as compound remaining at 10 uM incubated for 1 hr.
The nature of series [8]: Metabolic stability in CD1 mouse liver microsomes assessed as compound remaining at 10 uM incubated for 1 hr.
A short description of series [9]: Volume of distribution at steady state in BALB/c mouse at 1 mg/kg, iv measured upto 24 hrs by LC-MS/MS analysis. Particulars: in vivo.
The nature of series [10]: Apparent volume of distribution in BALB/c mouse at 1 mg/kg, iv measured upto 24 hrs by LC-MS/MS analysis. To be noted: in vivo.
Series [11] is described as follows: Clearance in BALB/c mouse at 1 mg/kg, iv measured upto 24 hrs by LC-MS/MS analysis. Particulars: in vivo.
A short description of series [12]: Half life in BALB/c mouse at 1 mg/kg, iv measured upto 24 hrs by LC-MS/MS analysis. Particulars: in vivo.
A short description of series [13]: Half life in BALB/c mouse at 5 mg/kg, po measured upto 24 hrs by LC-MS/MS analysis. To be noted: in vivo.
The target in series [14] is Prostaglandin E2 receptor EP4 subtype (Homo sapiens, UniProt P35408).
Description: Antagonist activity at human EP4 expressed in CHO cells coexpressing G16-alpha assessed as intracellular calcium flux preincubated for 15 mins followed by addition of PGE2 by calcium flux assay
Series [15] deals with Prostaglandin E2 receptor EP2 subtype (Homo sapiens, UniProt P43116).
Description: Antagonist activity at human EP2 expressed in CHO cells coexpressing G16-alpha assessed as intracellular calcium flux preincubated for 15 mins followed by addition of PGE2 by calcium flux assay
The target in series [16] is T4, Prostaglandin E2 receptor EP3 subtype (Homo sapiens, UniProt P43115).
T4 sequence (P43115 whole entry): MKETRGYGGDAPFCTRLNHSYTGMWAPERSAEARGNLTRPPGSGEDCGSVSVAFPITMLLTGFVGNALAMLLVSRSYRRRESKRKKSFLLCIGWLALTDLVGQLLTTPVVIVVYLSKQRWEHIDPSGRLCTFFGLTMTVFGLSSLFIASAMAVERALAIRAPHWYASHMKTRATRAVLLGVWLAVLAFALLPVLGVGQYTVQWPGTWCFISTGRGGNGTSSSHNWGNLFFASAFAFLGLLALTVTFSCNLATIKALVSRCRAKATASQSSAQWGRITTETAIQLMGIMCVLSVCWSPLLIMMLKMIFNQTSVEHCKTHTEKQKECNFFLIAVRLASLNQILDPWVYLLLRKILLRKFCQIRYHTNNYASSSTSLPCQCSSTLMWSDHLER
Description: Antagonist activity at human EP3 expressed in CHO cells coexpressing G16-alpha assessed as intracellular calcium flux preincubated for 15 mins followed by addition of PGE2 by calcium flux assay

Series [17] can be described thus: in vivo. To be noted: BALB/c, mouse, iv, 1 mg/kg.
Series [18] is described as follows: in vivo. Particulars: BALB/c, mouse, iv, 1 mg/kg. The source holds these as a separate data set.
Series [19] can be described thus: in vivo. To be noted: BALB/c, mouse, po, 5 mg/kg.
Description: Cmax in BALB/c mouse at 5 mg/kg, po measured upto 24 hrs by LC-MS/MS analysis
Series [20] in a line: in vivo. Particulars: BALB/c, mouse, po, 5 mg/kg. The source holds these as a separate data set.
Description: AUC (0 to infinity) in BALB/c mouse at 5 mg/kg, po measured upto 24 hrs by LC-MS/MS analysis
Series [21] can be described thus: in vivo. Particulars: BALB/c, mouse, po, 5 mg/kg. This is another data set of the same source.
Description: Oral bioavailability in BALB/c mouse at 5 mg/kg measured upto 24 hrs by LC-MS/MS analysis

Sequence of CYP2E1 (P05181 whole entry): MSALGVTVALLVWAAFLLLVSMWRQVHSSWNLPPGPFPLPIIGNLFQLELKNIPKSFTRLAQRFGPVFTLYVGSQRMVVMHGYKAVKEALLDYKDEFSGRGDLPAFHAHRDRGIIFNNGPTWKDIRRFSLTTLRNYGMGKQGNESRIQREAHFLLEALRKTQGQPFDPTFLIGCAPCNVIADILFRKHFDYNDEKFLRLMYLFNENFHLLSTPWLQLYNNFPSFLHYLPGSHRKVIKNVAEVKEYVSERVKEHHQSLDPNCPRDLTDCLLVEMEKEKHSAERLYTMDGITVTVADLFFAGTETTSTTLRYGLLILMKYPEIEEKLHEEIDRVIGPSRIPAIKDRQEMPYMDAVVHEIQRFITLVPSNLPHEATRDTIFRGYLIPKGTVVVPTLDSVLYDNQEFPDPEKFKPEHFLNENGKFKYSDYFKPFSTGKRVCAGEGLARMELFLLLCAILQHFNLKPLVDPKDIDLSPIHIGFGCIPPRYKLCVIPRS
Sequence of CYP2D6 (P10635 whole entry): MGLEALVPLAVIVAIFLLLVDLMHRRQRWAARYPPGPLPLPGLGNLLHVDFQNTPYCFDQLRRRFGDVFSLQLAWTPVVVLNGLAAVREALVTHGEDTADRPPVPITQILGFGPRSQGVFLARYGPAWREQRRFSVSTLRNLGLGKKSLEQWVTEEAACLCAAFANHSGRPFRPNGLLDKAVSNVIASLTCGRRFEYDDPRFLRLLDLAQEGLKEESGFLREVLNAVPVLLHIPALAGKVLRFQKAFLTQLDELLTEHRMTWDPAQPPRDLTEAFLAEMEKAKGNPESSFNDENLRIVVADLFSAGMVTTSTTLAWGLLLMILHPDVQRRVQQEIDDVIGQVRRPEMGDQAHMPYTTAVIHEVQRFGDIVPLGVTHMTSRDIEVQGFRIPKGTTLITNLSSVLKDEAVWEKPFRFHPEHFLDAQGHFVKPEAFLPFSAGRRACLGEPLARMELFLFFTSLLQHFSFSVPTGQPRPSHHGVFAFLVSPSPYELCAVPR
Sequence of Cytochrome P450 3A4 (P08684 whole entry): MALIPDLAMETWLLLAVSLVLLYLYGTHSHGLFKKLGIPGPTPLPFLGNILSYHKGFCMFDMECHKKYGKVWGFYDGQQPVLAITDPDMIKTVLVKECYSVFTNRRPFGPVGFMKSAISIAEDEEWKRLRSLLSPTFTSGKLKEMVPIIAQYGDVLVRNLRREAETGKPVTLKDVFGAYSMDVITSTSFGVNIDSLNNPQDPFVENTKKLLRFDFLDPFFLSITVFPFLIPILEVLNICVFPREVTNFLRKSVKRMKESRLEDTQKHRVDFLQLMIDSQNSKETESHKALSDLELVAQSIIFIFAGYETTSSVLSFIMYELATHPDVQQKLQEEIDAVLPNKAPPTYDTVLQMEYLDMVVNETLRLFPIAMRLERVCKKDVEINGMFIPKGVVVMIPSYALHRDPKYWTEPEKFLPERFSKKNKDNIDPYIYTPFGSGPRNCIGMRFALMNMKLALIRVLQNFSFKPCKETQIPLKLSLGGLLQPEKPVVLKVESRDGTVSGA
Sequence of Prostaglandin E2 receptor EP4 subtype (Mus musculus, UniProt P32240) (P32240 whole entry): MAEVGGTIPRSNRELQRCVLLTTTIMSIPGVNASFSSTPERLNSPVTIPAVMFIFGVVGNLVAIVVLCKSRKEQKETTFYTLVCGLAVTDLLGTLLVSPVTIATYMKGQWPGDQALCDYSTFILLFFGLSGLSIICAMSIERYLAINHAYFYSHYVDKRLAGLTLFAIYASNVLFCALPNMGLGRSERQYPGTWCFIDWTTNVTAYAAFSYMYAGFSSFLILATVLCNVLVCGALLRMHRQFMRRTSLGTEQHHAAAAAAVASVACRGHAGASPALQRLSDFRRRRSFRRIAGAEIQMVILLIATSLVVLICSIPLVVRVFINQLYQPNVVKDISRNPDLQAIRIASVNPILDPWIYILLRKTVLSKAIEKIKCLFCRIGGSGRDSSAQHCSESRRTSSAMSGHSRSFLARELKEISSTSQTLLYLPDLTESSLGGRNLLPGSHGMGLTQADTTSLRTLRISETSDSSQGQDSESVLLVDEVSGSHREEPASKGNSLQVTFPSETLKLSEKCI
Sequence of CYP2C9 (P11712 whole entry): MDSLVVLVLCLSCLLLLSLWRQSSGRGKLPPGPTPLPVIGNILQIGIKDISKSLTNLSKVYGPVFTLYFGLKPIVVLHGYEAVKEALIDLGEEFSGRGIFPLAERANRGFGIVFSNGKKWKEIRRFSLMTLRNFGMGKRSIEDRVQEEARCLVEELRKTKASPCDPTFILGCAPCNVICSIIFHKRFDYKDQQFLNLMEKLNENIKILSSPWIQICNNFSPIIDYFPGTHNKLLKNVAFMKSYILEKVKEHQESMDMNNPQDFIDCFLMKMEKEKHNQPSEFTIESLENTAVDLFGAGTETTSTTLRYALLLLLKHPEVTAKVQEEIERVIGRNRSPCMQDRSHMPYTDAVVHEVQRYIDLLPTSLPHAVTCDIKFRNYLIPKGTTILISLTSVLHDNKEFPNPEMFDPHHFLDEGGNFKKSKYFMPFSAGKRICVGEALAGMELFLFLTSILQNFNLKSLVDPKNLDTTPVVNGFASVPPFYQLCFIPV
Sequence of Prostaglandin E2 receptor EP2 subtype (P43116 whole entry): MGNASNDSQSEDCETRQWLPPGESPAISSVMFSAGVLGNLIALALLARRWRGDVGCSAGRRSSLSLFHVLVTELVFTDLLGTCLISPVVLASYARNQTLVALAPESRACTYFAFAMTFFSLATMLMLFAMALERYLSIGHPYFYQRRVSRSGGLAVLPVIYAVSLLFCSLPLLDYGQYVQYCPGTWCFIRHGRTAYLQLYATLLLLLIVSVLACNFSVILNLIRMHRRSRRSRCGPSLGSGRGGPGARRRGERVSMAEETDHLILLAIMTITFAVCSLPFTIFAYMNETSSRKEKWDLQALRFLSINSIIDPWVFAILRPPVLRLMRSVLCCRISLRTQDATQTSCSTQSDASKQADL
Sequence of Prostaglandin E2 receptor EP4 subtype (Homo sapiens, UniProt P35408) (P35408 whole entry): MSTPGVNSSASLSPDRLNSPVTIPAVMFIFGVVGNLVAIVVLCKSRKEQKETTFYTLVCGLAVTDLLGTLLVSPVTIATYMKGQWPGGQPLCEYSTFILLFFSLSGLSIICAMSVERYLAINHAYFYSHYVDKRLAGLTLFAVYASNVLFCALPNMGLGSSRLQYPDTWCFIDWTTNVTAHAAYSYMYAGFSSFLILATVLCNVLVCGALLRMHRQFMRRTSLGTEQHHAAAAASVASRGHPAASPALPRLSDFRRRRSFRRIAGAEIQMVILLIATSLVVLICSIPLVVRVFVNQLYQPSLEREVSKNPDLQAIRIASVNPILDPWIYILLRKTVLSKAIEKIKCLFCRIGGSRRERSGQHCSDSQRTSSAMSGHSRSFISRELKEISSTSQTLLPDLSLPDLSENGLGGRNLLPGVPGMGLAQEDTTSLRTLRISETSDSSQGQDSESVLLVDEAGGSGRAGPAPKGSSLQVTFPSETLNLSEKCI

Take `C[C@]12CC[C@H]3[C@@H](CCC4=CC(=O)CC[C@@]43C)[C@@H]1CC[C@@H]2O` [TESTOSTERONE]: the half-life – broadly, how long it takes for the measured level to halve – at 1 h, 10 µM in the series “in vitro [1]” was 19.4 min; in the series “in vitro [3]”, 2.9 min. For the same compound, the microsomal CLint (in general, a measure of how fast metabolising enzymes remove a compound, apart from limits set by blood flow) at 1 h, 10 µM in the series “in vitro [2]” was 71.3 µL/min/mg; in the series “in vitro [4]” it was 479 µL/min/mg.

As for `C[C@H](NC(=O)c1c(C(F)F)nn(C)c1Oc1cccc(C(F)(F)F)c1)c1ccc(C(=O)O)cc1` [PALUPIPRANT], the inhibition (usually the change of the read-out against control, counted positive when it falls) at 1 h, 20 µM stood at 79% against CYP2E1, 35% against CYP2D6, 23% against CYP2B6 and 67% against CYP2C9. Besides, the IC50 – broadly, the concentration needed to halve the response being measured – in [5] was determined as 181 nM. This compound had an inhibition at 0.5 h, 20 µM at CYP1A2 of 41%. Further, the “inhibition (INH)” value against Cytochrome P450 3A4 is “Not Active”. Moreover, in the series with CT26, the inhibition in vivo at 150 mg/kg is 43.2%.

As for `O=C(O)Cc1ccccc1Nc1c(Cl)cccc1Cl` [DICLOFENAC], the half-life at 1 h, 10 µM in “in vitro [1]” is 10.6 min; in the series “in vitro [3]”, 53.6 min. Further, the microsomal CLint at 1 h, 10 µM in “in vitro [2]” stood at 131 µL/min/mg; in “in vitro [4]” it was 25.8 µL/min/mg.

For `C[C@H](NC(=O)c1c(-c2ccsc2)nnn1Cc1ccc(C(F)(F)F)cc1)c1ccc(C(=O)O)cc1`, the inhibition at 1 h, 20 µM at CYP2E1 worked out at 63%; on CYP2D6, 25%; against CYP2B6 it was 28%; against CYP2C9, 48%. Moreover, the 50% inhibitory concentration (IC50) was 27.5 nM in series [5]; greater than 10000 nM in [6]; 12.9 nM in series [14]; greater than 10000 nM in series [15]; greater than 10000 nM in series [16]. Further, the values for the amount remaining at 1 h, 10 µM in series [7] and in [8] were 106% and 75.5%, respectively. Moreover, the inhibition at 0.5 h, 20 µM against CYP1A2 amounted to 21%. Moreover, the “inhibition (INH)” value at Cytochrome P450 3A4 is “Not Active”. In addition, the Vd at 24 h in series [9] was determined as 4 L/kg; in [10] it was 14.5 L/kg. Also, the clearance (usually the rate of elimination divided by the concentration) at 24 h in [11] is 50 mL/min/kg. In addition, the figures for the half-life at 24 h in series [12] and in series [13] were 198 min and 276 min, respectively. Further, the figures for the maximum concentration (Cmax) at 24 h in “in vivo [17]” and in the series “in vivo [19]” were 808 ng/mL and 365 ng/mL, respectively. The AUC(0-inf) (in general, total exposure, with the tail of the curve extrapolated) at 24 h in “in vivo [18]” stood at 332 ng·h/mL; in the series “in vivo [20]”, 654 ng·h/mL. The bioavailability (usually dose-corrected exposure relative to a reference, in per cent) at 24 h in “in vivo [21]” was 40.9%. Moreover, the half-life at 1 h, 10 µM in “in vitro [1]” and in “in vitro [3]” was greater than 145 min in each case. Besides, the microsomal CLint at 1 h, 10 µM in the series “in vitro [2]” and in “in vitro [4]” was less than 9.6 µL/min/mg throughout.
